The data set in a line: HILIC, Merck SeQuant ZIC-HILIC, 25 °C, 0.25 mL/min; A: water + 16 mM ammonium formate; B: acetonitrile + 0.1% formic acid, pH 3; gradient (min/%B) 0/97 2/97 10/70 15/10 17/10 18/97 25/97. The conditions noted are these: stereoisomer not certain.
Turning to `CC(C)CC(=O)OC(CC(=O)[O-])C[N+](C)(C)C` [Isovaleryl-L-carnitine], the LC retention time was determined as 10.2 min.
For `O=C(O)c1cc(=O)c2ccccc2[nH]1` [Kynurenic acid], the LC retention time was determined as 9.58 min.
The value for `NC(N)=NCCC[C@H](N)C(=O)O` [L-Arginine] was 16 min; that for `NC(=O)C[C@H](N)C(=O)O` [L-Asparagine] was 14.2 min; that for `O=C1OC(C(O)CO)C(O)C1O` [L-GULONOLACTONE] was 10.3 min.
The value for `NC(=O)CC[C@H](N)C(=O)O` [L-Glutamine] was 14.1 min; that for `N[C@@H](Cc1cnc[nH]1)C(=O)O` [L-Histidine] was 15.8 min; that for `NCCCC[C@H](N)C(=O)O` [L-Lysine] was 16.1 min.
The result for `N[C@@H](Cc1ccccc1)C(=O)O` [L-Phenylalanine] reads 11.1 min.
Regarding `N[C@@H](CO)C(=O)O` [L-Serine], the LC retention time came to 14.2 min.
In the case of `NC(=O)[C@@H](N)Cc1c[nH]c2ccccc12` [L-TRYPTOPHANAMIDE], the LC retention time is 11.7 min.
The value for `C[C@@H](O)[C@H](N)C(=O)O` [L-Threonine] was 13.7 min.
The result for `CC(O)C(=O)O` (stereo not given) [LACTATE] reads 2.75 min; that for `NC(=O)CCCCC1CCSS1` (stereo not given) [LIPOAMIDE], 1.79 min.
The value for `NC(CCCC(N)C(=O)O)C(=O)O` (stereo not given) [LL-2-6-DIAMINOHEPTANEDIOATE] was 15.4 min; that for `Cc1cc2nc3[nH]c(=O)[nH]c(=O)c3nc2cc1C` [LUMICHROME] was 1.94 min.
Consider `O=C(O)CC(O)C(=O)O` (stereo not given) [MALATE], for which the LC retention time is 8.89 min.
`NC(=O)C=CC(=O)O` [MALEAMATE]: the LC retention time was found to be 2.53 min.
On to `O=C([O-])C=CC(=O)[O-]` [MALEATE], for which the LC retention time is 2.17 min.
On to `O=C(O)CC(=O)O` [MALONATE], for which the LC retention time worked out at 6.35 min.
For `O=C([O-])C(O)c1ccccc1` (stereo not given) [MANDELATE], the LC retention time amounted to 2.08 min.
Turning to `COc1ccc2[nH]cc(CCNC(C)=O)c2c1` [MELATONIN], the LC retention time was 1.92 min.
Take `O=C(O)C(=O)CS` [MERCAPTOPYRUVATE]: the LC retention time is 13.8 min.
The value for `O=C([O-])C(O)C(O)C(=O)[O-]` (stereo not drawn) [MESO-TARTRATE] was 13.6 min.
The value for `CS(=N)(=O)CCC(N)C(=O)O` (stereo not given) [METHIONINE SULFOXIMINE] was 14.4 min; that for `COC(=O)CCCN` [METHYL 4-AMINOBUTYRATE-CH2] was 13.4 min.
The result for `CN=C(N)N` [METHYLGUANIDINE] reads 12 min; that for `CSCC1OC(n2cnc3c(N)ncnc32)C(O)C1O` (stereo not given) [METHYLTHIOADENOSINE], 4.75 min.
In the case of `COC(=O)Cc1ccc(O)cc1` [Methyl 4-hydroxyphenylacetate], the LC retention time came to 1.67 min.
As for `CC(CC(=O)O)C(=O)O` (stereo not given) [Methyl-succinic acid], the LC retention time came to 2.18 min.
The result for `CC(=O)NCCCNCCCCNCCCN` [N1-ACETYLSPERMINE] reads 19.9 min.
Regarding `CC(C)=CCNc1ncnc2nc[nH]c12` [N6-(DELTA2-ISOPENTENYL)-ADENINE], the LC retention time was determined as 2.13 min.
The value for `CNC(=O)c1cccnc1` [N methyl nicotinamide] was 2.15 min; that for `CC(=O)NC(CC(N)=O)C(=O)O` (stereo not given) [N-ACETYLASPARAGINE] was 9.75 min; that for `CC(=O)NC(CC(=O)O)C(=O)O` (stereo not given) [N-ACETYLASPARTATE] was 8.76 min.
The value for `CC(=O)NC(CSSCC(NC(C)=O)C(=O)O)C(=O)O` (stereo not given) [N-ACETYLCYSTEINE-dimere] was 13.2 min; that for `CC(=O)NC(CS)C(=O)O` (stereo not given) [N-ACETYLCYSTEINE] was 3.43 min.
The value for `CC(=O)NC(CCC(=O)O)C(=O)O` (stereo not given) [N-ACETYLGLUTAMATE] was 8.36 min; that for `CC(=O)NCC(=O)O` [N-ACETYLGLYCINE] was 4.93 min; that for `CSCCC(NC(C)=O)C(=O)O` (stereo not given) [N-ACETYLMETHIONINE] was 2.18 min.
Turning to `CC(=O)NC(Cc1ccccc1)C(=O)O` (stereo not given) [N-ACETYLPHENYLALANINE], the LC retention time was found to be 1.95 min.
For `CC(=O)NCCCCN` [N-ACETYLPUTRESCINE], the LC retention time came out at 12.9 min.
On to `CC(=O)NC(CO)C(=O)O` (stereo not given) [N-ACETYLSERINE], for which the LC retention time was 8.33 min.
The value for `CC(=O)NCCc1c[nH]c2ccc(O)cc12` [N-ACETYLSEROTONIN] was 2.15 min; that for `CC(=O)NC(Cc1c[nH]c2ccccc12)C(=O)O` (stereo not given) [N-ACETYLTRYPTOPHAN] was 2.15 min; that for `CC(=O)N[C@@H](Cc1ccc(O)cc1)C(=O)O` [N-Acetyl-L-tyrosine] was 2.16 min.
The result for `CC(=O)NC1C(O)CC(O)(C(=O)O)OC1C(O)C(O)CO` (stereo not given) [N-Acetylneuraminic acid] reads 13.9 min.
The result for `O=CNCC(=O)O` [N-FORMYLGLYCINE] reads 5.34 min; that for `CNC(CCC(=O)O)C(=O)O` (stereo not given) [N-METHYLGLUTAMATE], 13.9 min.
On to `C[N+](C)(C)CCCCC(N)C(=O)[O-]` (stereo not given) [N-N-N-TRIMETHYLLYSINE], for which the LC retention time is 16.5 min.
The value for `c1ccc(CNc2ccccc2)cc1` [N-benzylaniline] was 1.54 min; that for `Cn1cc(C(N)=O)ccc1=O` [N-methyl-2-pyridone-5-carboxamide] was 2.21 min.
The value for `NC(=O)C1=CN(C2OC(COP(=O)(O)OP(=O)(O)OCC3OC(n4cnc5c(N)ncnc54)C(OP(=O)(O)O)C3O)C(O)C2O)C=CC1` (stereo not given) [NADPH] was 15 min; that for `CCCCCCCCC=CCCCCCCCCCCCCCC(=O)[O-]` [NERVONATE] was 1.52 min.
The result for `NC(=O)c1ccc[n+](C2OC(COP(=O)(O)OP(=O)(O)OCC3OC(n4cnc5c(=O)[nH]cnc54)C(O)C3O)C(O)C2O)c1` (stereo not given) [NICOTINAMIDE HYPOXANTHINE DINUCLEOTIDE] reads 14.8 min; that for `NC(=O)c1ccc[n+](C2OC(COP(=O)([O-])O)C(O)C2O)c1` (stereo not given) [NICOTINAMIDE MONONUCLEOTIDE], 14.7 min.
In the case of `Nc1ncnc2c1ncn2C1OC(COP(=O)(O)OP(=O)([O-])OCC2OC([n+]3cccc(C(=O)O)c3)C(O)C2O)C(O)C1OP(=O)(O)O` (stereo not given) [NICOTINIC ACID ADENINE DINUCLEOTIDE PHOSPHATE], the LC retention time came to 15.3 min.
The value for `NCC(O)c1ccc(O)c(O)c1` (stereo not given) [NORADRENALINE] was 13.4 min.
As to `CCCCC(N)C(=O)O` (stereo not given) [NORLEUCINE], the LC retention time worked out at 11.2 min.
Take `NCCCNCCCN` [NORSPERMIDINE]: the LC retention time came to 19.4 min.
For the molecule `O=C(O)c1cccnc1` [Nicotinic acid], the LC retention time stood at 2.81 min.
Regarding `CC(=O)OCC(N)C(=O)O` (stereo not given) [O-ACETYLSERINE], the LC retention time was found to be 12.4 min.
The value for `NC(CCOC(=O)CCC(=O)O)C(=O)O` (stereo not given) [O-SUCCINYL-HOMOSERINE] was 13.3 min; that for `O=C(O)CCCCCCCCCCCO` [OMEGA-HYDROXYDODECANOATE] was 1.7 min; that for `CCC(NC(=O)CCC(N)C(=O)O)C(=O)NCC(=O)O` (stereo not given) [OPHTHALMATE] was 14.1 min.

The record behind these values is the RepoRT retention time repository.
